Columns and labels:
[1] = biological target: T1, human sphingosine-1-phosphate receptor 1 (S1P1) (Homo sapiens, UniProt P21453); assay: β-Arrestin2 recruitment assay (PathHunter), S1P1 CHO-K1 cells; format: cell-based
Procedure: Stable clonal Chinese hamster ovary K1 (CHO-K1) cells co-expressing EA-β-arrestin2 and the human sphingosine-1-phosphate receptor 1 (NM_001400, S1P1) with a C-terminal Prolink™ tag were purchased from DiscoverX corporation (Cat #: 93-0207C2).
Cell lines were cultured in AssayComplete™ Media 6 (DiscoverX Corporation, Cat #: 920018GF2) at 37° C. and 5% CO2 in a humidified CO2 and temperature-controlled incubator. To begin assay plating, cells were washed with Dulbecco's phosphate buffered saline (CellGro, Cat #: 21-031-CV) and lifted from the culturing flask by incubation (37° C., 5 min) with CellStripper (Cellgro, Cat #: 25-056-CI). […] Plated cells were incubated overnight at 37° C. and 5% CO2 in a humidified CO2 and temperature-controlled incubator.
Agonist-promoted β-arrestin2 recruitment to the sphingosine-1-phosphate 1 receptor was determined using the β-arrestin PathHunter® Detection kit (DiscoverX Corporation, Cat #: 93-0001). […] In cells that stably express these fusion proteins, stimulation with a cognate agonist results in the interaction of β-arrestin2 and the Prolink™-tagged GPCR. This allows the complementation of the two β-galactosidase fragments and results in the formation of a functional enzyme with β-galactosidase activity. […] Following a 60 minute incubation at 37° C. and 5% CO2 in a humidified CO2 and temperature-controlled incubator, the components of the β-arrestin PathHunter® Detection kit were added as per the manufacturer's instructions. After an hour incubation at room temperature, plates were analyzed by a BMG PheraStar microplate reader.
These values are normalized to fingolimod, a known agonist of the sphingosine-1-phosphate 1 receptor.
Target sequence in this assay (P21453 whole entry): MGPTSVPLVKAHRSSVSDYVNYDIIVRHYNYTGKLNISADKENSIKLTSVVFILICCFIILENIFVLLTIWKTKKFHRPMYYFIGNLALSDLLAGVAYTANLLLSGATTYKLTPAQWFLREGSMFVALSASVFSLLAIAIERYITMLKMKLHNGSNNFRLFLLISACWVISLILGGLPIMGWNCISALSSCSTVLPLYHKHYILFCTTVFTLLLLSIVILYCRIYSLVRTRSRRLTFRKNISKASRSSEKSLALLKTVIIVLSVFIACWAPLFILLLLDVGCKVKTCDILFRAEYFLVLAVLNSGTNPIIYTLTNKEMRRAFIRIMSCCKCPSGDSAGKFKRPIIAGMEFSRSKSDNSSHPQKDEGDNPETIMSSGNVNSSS
Target sequence in this assay (P32121 whole entry partner): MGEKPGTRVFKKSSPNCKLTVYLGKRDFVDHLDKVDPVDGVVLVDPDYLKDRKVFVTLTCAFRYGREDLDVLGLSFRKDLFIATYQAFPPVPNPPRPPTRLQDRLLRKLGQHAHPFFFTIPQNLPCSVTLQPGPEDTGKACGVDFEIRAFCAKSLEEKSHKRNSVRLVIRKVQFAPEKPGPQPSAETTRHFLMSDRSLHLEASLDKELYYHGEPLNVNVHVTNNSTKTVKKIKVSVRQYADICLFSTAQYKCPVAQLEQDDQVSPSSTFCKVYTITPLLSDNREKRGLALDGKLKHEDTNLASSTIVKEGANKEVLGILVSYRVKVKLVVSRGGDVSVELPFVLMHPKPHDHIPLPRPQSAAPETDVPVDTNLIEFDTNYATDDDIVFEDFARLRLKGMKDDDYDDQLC

[2] = biological target: T1, human sphingosine-1-phosphate receptor 1 (S1P1); assay: Inhibition of cAMP production (HTRF cAMP HiRange), S1P1 CHO-K1 cells; format: cell-based
Procedure, shortened: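 Intracellular cAMP changes read by TR-FRET (HTRF HiRange, 1 h room temperature) after 30 min compound exposure at 37 °C. Cells: overnight-plated CHO-K1 stably expressing tagged human S1P1 with EA-β-arrestin2. Responses normalized to fingolimod.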
Target sequence in this assay (P21453 whole entry): as the sequence (P21453 whole entry) above

[3] = CHO-K1, β-arrestin2 recruitment, efficacy normalized to maximum efficacy of fingolimod, read-out: hS1P1 B-arrestin2 SPAN
[4] = β-arrestin2 recruitment, potency, read-out: hS1P1 B-arrestin2 pEC50 (converted)
[5] = CHO-K1, inhibition of cAMP production, efficacy normalized to maximum efficacy of fingolimod, read-out: hS1P1 CAMP SPAN
[6] = inhibition of cAMP production, potency, read-out: hS1P1 CAMP pEC50 (converted)
[7] = inhibition of cAMP production, S1P1, read-out: hS1P1 CAMP pEC50 (converted)

Emax [1, 3] [%]	EC50 [1, 4] [nM]	Emax [2, 5] [%]	EC50 [2, 6] [nM]	EC50 [2, 7] [nM]	SMILES	EC50 [1] [nM]	Emax ([1]; CHO-K1, read-out: hS1P1 B-arrestin2 SPAN) [%]	EC50 [2] [nM]	Emax ([2]; CHO-K1, read-out: hS1P1 CAMP SPAN) [%]
< 75	> 10000	< 75	> 316	–	Fc1cc(-c2noc(-c3ccc4c(c3)nnn4C3CCCC3)n2)ccc1C(F)(F)F [Compound 1, 1-cyclopentyl-5-{3-[3-fluoro-4-(trifluoro-methyl)phenyl]-1,2,4-oxadiazol-5-yl}-1H-1,2,3-benzotriazole]	–	–	–	–
< 75	> 10000	< 75	> 316	–	CCCn1nnc2cc(-c3nc(-c4ccc(F)cc4)no3)ccc21 [Compound 5, 5-[3-(4-fluorophenyl)-1,2,4-oxadiazol-5-yl]-1-propyl-1H-1,2,3-benzotriazole]	–	–	–	–
< 75	> 10000	< 75	> 316	–	CC(C)n1nnc2cc(-c3nc(-c4ccc(-c5ccccc5)cn4)no3)ccc21 [Compound 9, 5-[3-(5-phenylpyridin-2-yl)-1,2,4-oxadiazol-5-yl]-1-(propan-2-yl)-1H-1,2,3-benzotriazole]	–	–	–	–
< 75	> 10000	< 75	> 316	–	FC(F)(F)c1cccc(-c2nc(-c3ccc4c(c3)nnn4C3CCCC3)no2)c1 [Compound 12, 3-(1-cyclopentyl-1H-benzo[d][1,2,3]triazol-5-yl)-5-(3-(trifluoro-methyl)phenyl)-1,2,4-oxadiazole]	–	–	–	–
< 75	> 10000	> 75	> 316	–	CC(C)n1nnc2cc(-c3nc(-c4ccc(Oc5ccccc5)cc4)no3)ccc21 [Compound 15, 5-[3-(4-phenoxyphenyl)-1,2,4-oxadiazol-5-yl]-1-(propan-2-yl)-1H-1,2,3-benzotriazole]	–	–	–	–
> 75	< 10000	> 75	< 316	–	CC(C)n1nnc2cc(-c3nc(-c4ccccc4Cl)no3)ccc21 [Compound 17]	–	–	–	–
< 75	> 10000	< 75	> 316	–	CC(C)n1nnc2cc(-c3noc(C4CCC4)n3)ccc21 [Compound 18, 5-(5-cyclobutyl-1,2,4-oxadiazol-3-yl)-1-(propan-2-yl)-1H-1,2,3-benzotriazole]	–	–	–	–
> 75	< 10000	> 75	< 316	–	CC(C)Oc1ccc(-c2noc(-c3ccc4c(c3)nnn4C(C)C)n2)cc1C(F)(F)F [Compound 20, 3-(4-isopropoxy-3-(trifluoromethyl)phenyl)-5-(1-isopropyl-1H-benzo[d][1,2,3]triazol-5-yl)-1,2,4-oxadiazole]	–	–	–	–
> 75	> 10000	> 75	> 316	–	CC(C)n1nnc2cc(-c3nc(-c4ccccc4F)co3)ccc21 [Compound 21, 5-[4-(2-fluorophenyl)-1,3-oxazol-2-yl]-1-(propan-2-yl)-1H-1,2,3-benzotriazole]	–	–	–	–
< 75	> 10000	< 75	> 316	–	CC(C)n1nnc2cc(-c3noc(-c4cccc(COc5ccccc5)c4)n3)ccc21 [Compound 23, 3-(1-isopropyl-1H-benzo[d][1,2,3]triazol-5-yl)-5-(3-(phenoxy-methyl)phenyl)-1,2,4-oxadiazole]	–	–	–	–
< 75	> 10000	< 75	> 316	–	CC(C)c1ccc(-c2nc(-c3ccc4c(c3)nnn4C(C)C)no2)cn1 [Compound 25, 3-(1-isopropyl-1H-benzo[d][1,2,3]triazol-5-yl)-5-(6-isopropyl-pyridin-3-yl)-1,2,4-oxadiazole]	–	–	–	–
< 75	> 10000	< 75	> 316	–	CCC1(CC)CC(=O)c2cc(-c3nc(-c4ccc5c(c4)nnn5C(C)C)ns3)ccc2O1 [Compound 29, 2,2-diethyl-6-(3-(1-isopropyl-1H-benzo[d][1,2,3]triazol-5-yl)-1,2,4-thiadiazol-5-yl)chroman-4-one]	–	–	–	–
> 75	< 10000	> 75	< 316	–	CC(C)n1nnc2cc(-c3noc(-c4ccccc4C(F)(F)F)n3)ccc21 [Compound 33, 3-(1-isopropyl-benzotriazol-5-yl)-5-[2-(trifluoromethyl)phenyl]-1,2,4-oxadiazole]	–	–	–	–
> 75	> 10000	> 75	> 316	–	COc1ccccc1-c1nnc(-c2ccc3c(c2)nnn3C(C)C)o1 [Compound 35, 5-[5-(2-methoxyphenyl)-1,3,4-oxadiazol-2-yl]-1-(propan-2-yl)-1H-1,2,3-benzotriazole]	–	–	–	–
–	–	–	–	> 316	CC(C)(CO)n1nnc2cc(-c3noc(-c4cnccc4C(F)(F)F)n3)ccc21 [Compound 644, 2-methyl-2-(5-(5-(4-(trifluoro-methyl)pyridin-3-yl)-1,2,4-oxadiazol-3-yl)-1H-benzo[d][1,2,3]triazol-1-yl)propan-1-ol]	–	–	–	–

Second part, the compound before the results:

SMILES	Emax [1, 3] [%]	EC50 [1, 4] [nM]	Emax [2, 5] [%]	EC50 [2, 6] [nM]	EC50 [2, 7] [nM]	EC50 [1] [nM]	Emax ([1]; CHO-K1, read-out: hS1P1 B-arrestin2 SPAN) [%]	EC50 [2] [nM]	Emax ([2]; CHO-K1, read-out: hS1P1 CAMP SPAN) [%]
CCn1nnc2cc(-c3noc(-c4ccccc4Br)n3)ccc21 [Compound 2, 5-(2-bromophenyl)-3-(1-ethyl-1H-benzo[d][1,2,3]triazol-5-yl)-1,2,4-oxadiazole]	–	< 10000	–	–	–	–	–	–	–
Cc1ccncc1-c1noc(-c2ccc3nnn(CC(C)C)c3c2)n1 [Compound 3, 1-(2-methylpropyl)-6-[3-(4-methylpyridin-3-yl)-1,2,4-oxadiazol-5-yl]-1H-1,2,3-benzotriazole]	> 75	< 10000	> 75	< 316	–	–	–	–	–
c1ccc(-c2noc(-c3ccc4c(c3)nnn4C3CCCC3)n2)cc1 [Compound 7, 1-cyclopentyl-5-(3-phenyl-1,2,4-oxadiazol-5-yl)-1H-1,2,3-benzotriazole]	> 75	> 10000	> 75	> 316	–	–	–	–	–
FC(F)(F)Oc1cccc(-c2nc(-c3ccc4c(c3)nnn4C3CCCC3)no2)c1 [Compound 10, 3-(1-cyclopentyl-1H-benzo[d][1,2,3]triazol-5-yl)-5-(3-(trifluoro-methoxy)phenyl)-1,2,4-oxadiazole]	–	–	–	–	–	> 10000	< 75	> 316	< 75
Cc1cccc(-c2noc(-c3ccc4c(c3)nnn4C3CCCCC3)n2)c1 [Compound 11, 1-cyclohexyl-5-[3-(3-methylphenyl)-1,2,4-oxadiazol-5-yl]-1H-1,2,3-benzotriazole]	< 75	> 10000	< 75	> 316	–	–	–	–	–
Oc1ccc(-c2noc(-c3ccc4c(c3)nnn4C3CCCC3)n2)cc1 [Compound 13, 4-[5-(1-cyclopentyl-1H-1,2,3-benzotriazol-5-yl)-1,2,4-oxadiazol-3-yl]phenol]	< 75	< 10000	< 75	< 316	–	–	–	–	–
CSc1ccccc1-c1nc(-c2ccc3c(c2)nnn3C2CCCC2)no1 [Compound 16, 3-(1-cyclopentyl-1H-benzo[d][1,2,3]triazol-5-yl)-5-(2-(methylthio)phenyl)-1,2,4-oxadiazole]	> 75	< 10000	< 75	> 316	–	–	–	–	–
OCCCn1nnc2cc(-c3noc(-c4ccccc4Br)n3)ccc21 [Compound 24, 3-(5-(5-(2-bromophenyl)-1,2,4-oxadiazol-3-yl)-1H-benzo[d][1,2,3]triazol-1-yl)propan-1-ol]	< 75	> 10000	> 75	> 316	–	–	–	–	–
CCC1(CC)CC(=O)c2cc(-c3nc(-c4ccc(S(=O)(=O)N(C)C)cc4)no3)ccc2O1 [Compound 30, 4-(5-(2,2-diethyl-4-oxochroman-6-yl)-1,2,4-oxadiazol-3-yl)-N,N-dimethylbenzene-sulfonamide]	< 75	> 10000	< 75	> 316	–	–	–	–	–
CCC1(CC)CC(=O)c2cc(-c3nc(-c4ccc(C)s4)no3)ccc2O1 [Compound 34, 2,2-diethyl-6-(3-(5-methylthiophen-2-yl)-1,2,4-oxadiazol-5-yl)chroman-4-one]	< 75	< 10000	> 75	> 316	–	–	–	–	–
CC(C)n1nnc2cc(-c3ncc(-c4ccc(F)cc4)s3)ccc21 [Compound 37, 5-(4-fluorophenyl)-2-(1-isopropyl-benzotriazol-5-yl)thiazole]	< 75	> 10000	< 75	> 316	–	–	–	–	–
CC(C)(CO)n1nnc2cc(-c3noc(-c4cccnc4F)n3)ccc21 [Compound 643, 2-(5-(5-(2-fluoro-pyridin-3-yl)-1,2,4-oxadiazol-3-yl)-1H-benzo[d][1,2,3]triazol-1-yl)-2-methylpropan-1-ol]	–	–	–	–	> 316	–	–	–	–

Source: US20230114241A1, “METHODS OF TREATING EPILEPSY USING THE SAME” (Trevena, Inc., priority 2019, published 2023)
